Measured values published in US5424456A, “N-arylalkylderivatives of 2-aminomethyl-2,3-dihydro-1,4-benzodioxine and the process of preparation thereof” (Vyzkumny Ustav Pro Farmacii A Biochemii s.p., priority 1991, dated 1995).

Assays:
blood pressure = assay: Hypotensive activity, pentobarbital anaesthesized rabbits; format: in vivo, rabbit
Excerpt: a) The blood pressure of pentobarbital anaesthesized rabbits was registered invasively in arteria femoralis. The average decrease in systolic (SBP) and diastolic (DBP) blood pressure expressed in per cents of the starting blood pressure level after intravenous and oral administration is shown in Tables 3 and 4.

intraocular pressure = assay: Effect on the intraocular pressure; format: in vivo, rabbit; conditions: rabbits, topical intraocular administration
[1] = p.o., 5.0 mg/kg, value 1 of 5 (heads 30/60/120/180 min)
[2] = p.o., 5.0 mg/kg, value 2 of 5 (heads 30/60/120/180 min)
[3] = p.o., 5.0 mg/kg, value 3 of 5 (heads 30/60/120/180 min)
[4] = p.o., 5.0 mg/kg, value 4 of 5 (heads 30/60/120/180 min)
[5] = p.o., 5.0 mg/kg, value 5 of 5 (heads 30/60/120/180 min)
[6] = p.o., 10.0 mg/kg, value 1 of 5 (heads 30/60/120/180 min)
[7] = p.o., 10.0 mg/kg, value 2 of 5 (heads 30/60/120/180 min)
[8] = p.o., 10.0 mg/kg, value 3 of 5 (heads 30/60/120/180 min)
[9] = p.o., 10.0 mg/kg, value 4 of 5 (heads 30/60/120/180 min)
[10] = p.o., 10.0 mg/kg, value 5 of 5 (heads 30/60/120/180 min)
[11] = p.o., 50.0 mg/kg, value 1 of 5 (heads 30/60/120/180 min)
[12] = p.o., 50.0 mg/kg, value 2 of 5 (heads 30/60/120/180 min)
[13] = p.o., 50.0 mg/kg, value 3 of 5 (heads 30/60/120/180 min)
[14] = p.o., 50.0 mg/kg, value 4 of 5 (heads 30/60/120/180 min)
[15] = p.o., 50.0 mg/kg, value 5 of 5 (heads 30/60/120/180 min)

## COc1ccc(C(C#N)(CCCNCC2COc3ccccc3O2)C(C)C)cc1OC (racemic) [VUFB 17951, 5-(2,3-Dihydro-1,4-benzodioxin-2-ylmethylamino)-2-(3,4-dimethoxyphenyl)-2-isopropyl valeronitrile]
Blood pressure; i.v., 0.2 mg/kg, 1 min
  decrease in diastolic blood pressure (DBP): -36 per cents
  decrease in systolic blood pressure (SBP): -28 per cents
Blood pressure; i.v., 0.2 mg/kg, 5 min
  decrease in diastolic blood pressure (DBP): -23 per cents
  decrease in systolic blood pressure (SBP): -24 per cents
Blood pressure; i.v., 0.2 mg/kg, 30 min
  decrease in diastolic blood pressure (DBP): -24 per cents
  decrease in systolic blood pressure (SBP): -25 per cents
Blood pressure; i.v., 0.2 mg/kg, 60 min
  decrease in diastolic blood pressure (DBP): -16 per cents
  decrease in systolic blood pressure (SBP): -18 per cents
Blood pressure; i.v., 0.2 mg/kg, 180 min
  decrease in diastolic blood pressure (DBP): -17 per cents
  decrease in systolic blood pressure (SBP): -13 per cents
Blood pressure; i.v., 1.0 mg/kg, 1 min
  decrease in diastolic blood pressure (DBP): -56 per cents
  decrease in systolic blood pressure (SBP): -47 per cents
Blood pressure; i.v., 1.0 mg/kg, 5 min
  decrease in diastolic blood pressure (DBP): -36 per cents
  decrease in systolic blood pressure (SBP): -39 per cents
Blood pressure; i.v., 1.0 mg/kg, 30 min
  decrease in diastolic blood pressure (DBP): -30 per cents
  decrease in systolic blood pressure (SBP): -35 per cents
Blood pressure; i.v., 1.0 mg/kg, 60 min
  decrease in diastolic blood pressure (DBP): -33 per cents
  decrease in systolic blood pressure (SBP): -35 per cents
Blood pressure; i.v., 1.0 mg/kg, 180 min
  decrease in diastolic blood pressure (DBP): -24 per cents
  decrease in systolic blood pressure (SBP): -17 per cents
Blood pressure; [1]
  decrease in diastolic blood pressure (DBP): -6 per cents
  decrease in systolic blood pressure (SBP): -6 per cents
Blood pressure; [2]
  decrease in diastolic blood pressure (DBP): -12 per cents
  decrease in systolic blood pressure (SBP): -14 per cents
Blood pressure; [3]
  decrease in diastolic blood pressure (DBP): -18 per cents
  decrease in systolic blood pressure (SBP): -17 per cents
Blood pressure; [4]
  decrease in diastolic blood pressure (DBP): -18 per cents
  decrease in systolic blood pressure (SBP): -13 per cents
Blood pressure; [5]
  decrease in diastolic blood pressure (DBP): -18 per cents
  decrease in systolic blood pressure (SBP): -15 per cents
Blood pressure; [6]
  decrease in diastolic blood pressure (DBP): -6 per cents
  decrease in systolic blood pressure (SBP): -5 per cents
Blood pressure; [7]
  decrease in diastolic blood pressure (DBP): -11 per cents
  decrease in systolic blood pressure (SBP): -9 per cents
Blood pressure; [8]
  decrease in diastolic blood pressure (DBP): -18 per cents
  decrease in systolic blood pressure (SBP): -12 per cents
Blood pressure; [9]
  decrease in diastolic blood pressure (DBP): -20 per cents
  decrease in systolic blood pressure (SBP): -13 per cents
Blood pressure; [10]
  decrease in diastolic blood pressure (DBP): -17 per cents
  decrease in systolic blood pressure (SBP): -12 per cents
Intraocular pressure
  lowering of the intraocular pressure: lowered significantly the intraocular pressure

## Cc1ccccc1C(C#N)(CCCNCC1COc2ccccc2O1)C(C)C (racemic) [VUFB 17959, 5-(2,3-dihydro-1,4-benzodioxin-2-ylmethylamino)-2-isopropyl-2-(2-methylphenyl) valeronitrile]
Blood pressure; i.v., 1.0 mg/kg, 1 min
  decrease in diastolic blood pressure (DBP): -51 per cents
  decrease in systolic blood pressure (SBP): -47 per cents
Blood pressure; i.v., 1.0 mg/kg, 5 min
  decrease in diastolic blood pressure (DBP): -22 per cents
  decrease in systolic blood pressure (SBP): -23 per cents
Blood pressure; i.v., 1.0 mg/kg, 30 min
  decrease in diastolic blood pressure (DBP): -21 per cents
  decrease in systolic blood pressure (SBP): -22 per cents
Blood pressure; i.v., 1.0 mg/kg, 60 min
  decrease in diastolic blood pressure (DBP): -25 per cents
  decrease in systolic blood pressure (SBP): -14 per cents
Blood pressure; i.v., 1.0 mg/kg, 180 min
  decrease in diastolic blood pressure (DBP): -18 per cents
  decrease in systolic blood pressure (SBP): -8 per cents
Blood pressure; i.v., 5.0 mg/kg, 1 min
  decrease in diastolic blood pressure (DBP): -69 per cents
  decrease in systolic blood pressure (SBP): -60 per cents
Blood pressure; i.v., 5.0 mg/kg, 5 min
  decrease in diastolic blood pressure (DBP): -39 per cents
  decrease in systolic blood pressure (SBP): -35 per cents
Blood pressure; i.v., 5.0 mg/kg, 30 min
  decrease in diastolic blood pressure (DBP): -31 per cents
  decrease in systolic blood pressure (SBP): -26 per cents
Blood pressure; i.v., 5.0 mg/kg, 60 min
  decrease in diastolic blood pressure (DBP): -29 per cents
  decrease in systolic blood pressure (SBP): -27 per cents
Blood pressure; i.v., 5.0 mg/kg, 180 min
  decrease in diastolic blood pressure (DBP): -33 per cents
  decrease in systolic blood pressure (SBP): -25 per cents
Blood pressure; [6]
  decrease in diastolic blood pressure (DBP): -2 per cents
  decrease in systolic blood pressure (SBP): -2 per cents
Blood pressure; [7]
  decrease in diastolic blood pressure (DBP): 0 per cents
  decrease in systolic blood pressure (SBP): -3 per cents
Blood pressure; [8]
  decrease in diastolic blood pressure (DBP): -3 per cents
  decrease in systolic blood pressure (SBP): -4 per cents
Blood pressure; [9]
  decrease in diastolic blood pressure (DBP): -8 per cents
  decrease in systolic blood pressure (SBP): -1 per cents
Blood pressure; [10]
  decrease in diastolic blood pressure (DBP): -10 per cents
  decrease in systolic blood pressure (SBP): +3 per cents
Blood pressure; [11]
  decrease in diastolic blood pressure (DBP): -6 per cents
  decrease in systolic blood pressure (SBP): -9 per cents
Blood pressure; [12]
  decrease in diastolic blood pressure (DBP): -12 per cents
  decrease in systolic blood pressure (SBP): -18 per cents
Blood pressure; [13]
  decrease in diastolic blood pressure (DBP): -18 per cents
  decrease in systolic blood pressure (SBP): -26 per cents
Blood pressure; [14]
  decrease in diastolic blood pressure (DBP): -18 per cents
  decrease in systolic blood pressure (SBP): -29 per cents
Blood pressure; [15]
  decrease in diastolic blood pressure (DBP): -18 per cents
  decrease in systolic blood pressure (SBP): -31 per cents
Intraocular pressure
  lowering of the intraocular pressure: lowered significantly the intraocular pressure
